Like-named read-outs stand apart in the source and are kept apart here.

The record followed here is US7517874B2 (priority 2007, dated 2009).

Experiment [1] addresses human CB1 receptor (hCB1) (Homo sapiens, UniProt P21554). Nature of the experiment: cell-based. In kind it is cell-based. Conditions: for +/− HCB1: agonist or inverse agonist at hCB1. The protocol: (§1) The ability of compounds to act as agonists or inverse agonists at human CB2 and CB1 receptors (hCB2, hCB1, respectively) and at the rat CB2 receptor (rCB2) was determined by measuring changes in intracellular cAMP levels. Chinese Hamster Ovary (CHO-K1) cell lines stably expressing hCB2 (Genebank: X74328) or hCB1 (Genebank: X54937) were purchased from Euroscreen (Gosselies, Belgium). The rat CB2 receptor was expressed from genomic DNA (provided by M. Abood, California Pacific Medical Center) in CHO-K1 cells from expression plasmid vector, pcDNA3.1.
(§2) Cell lines were grown in suspension in EX-CELL 302 CHO Serum-free medium (Sigma, cat #14324C) supplemented with 1% Fetal Bovine Serum, glutamine and non-essential amino-acids under 0.4 mg/mL G418 selection.
(§3) Receptor mediated responses were determined by measuring changes in intracellular cAMP using LANCE cAMP detection kit (cat #AD0264, Perkin Elmer, Wellesley, Mass.) based on time-resolved fluorescence resonance energy transfer (TR-FRET). Changes in cAMP were determined in cells pre-incubated with IBMX (isobutyl methylxanthine) and prestimulated with NKH-477 (a water soluble forskolin derivative, cat #1603, Tocris, Ellisville, Mo.) to increase basal cAMP levels as detailed below.
(§4) On the day of the experiment, cells were spun at low speed for 5 min at room temperature. The supernatant was removed and cells were resuspended in stimulation buffer (Hanks Buffered Salt Solution/5 mM HEPES, containing 0.5 mM IBMX (cat #17018, Sigma) and 0.02% BSA (Perkin-Elmer, cat #CR84-100)). Cell clumps were removed by filtering through cell strainer 40 μm (BD Falcon, Discovery Labware, Bedford, Mass.) and diluted to 2×10^5 cells/mL. Antibody supplied with the LANCE cAMP immunoassay kit was then added according to the manufacturer's instructions. An aliquot of cells was taken for un-induced controls. To the remaining cells was added NKH-477 (a water soluble forskolin derivative, Tocris cat #1603) to a final concentration of 2-8 μM. Cells were then incubated for 30 min at room temperature prior to adding to Proxiplates containing test compounds (final DMSO concentration was less than 0.5%) with a Multidrop bulk dispenser, followed by a sixty minute incubation at room temperature. The response was stopped by addition of the detection mix supplied with the LANCE kit. The reagents were allowed to equilibrate for three hours prior to reading on an Envision multi-mode detector (Perkin-Elmer). TR-FRET was measured using a 330-380 nm excitation filter, a 665 nm emission filter, dichroic mirror 380 nm and Z=1 mm. Cyclic AMP concentrations in each well were back-calculated from a cAMP standard curve run concurrently during each assay. Each plate contained 16 wells of forskolin stimulated cells and 16 wells of forskolin plus CP55,940-treated cells. Cells were treated with 1 μM CP55,940 (Tocris cat. #0949). Concentrations of cAMP were expressed as a percent of the difference of these two groups of wells. Concentration-response data including EC50 (the concentration of compound producing 50% of the maximal response) and intrinsic activity (the percent maximal activation compared to full activation by CP55,940) were determined using a four-parameter non-linear regression algorithm (Xlfit equation 251, IDBS).

For the next experiment, the target named is T1, rat CB2 receptor (rCB2) (Rattus norvegicus, UniProt Q9QZN9).
T1 sequence (Q9QZN9 1-360): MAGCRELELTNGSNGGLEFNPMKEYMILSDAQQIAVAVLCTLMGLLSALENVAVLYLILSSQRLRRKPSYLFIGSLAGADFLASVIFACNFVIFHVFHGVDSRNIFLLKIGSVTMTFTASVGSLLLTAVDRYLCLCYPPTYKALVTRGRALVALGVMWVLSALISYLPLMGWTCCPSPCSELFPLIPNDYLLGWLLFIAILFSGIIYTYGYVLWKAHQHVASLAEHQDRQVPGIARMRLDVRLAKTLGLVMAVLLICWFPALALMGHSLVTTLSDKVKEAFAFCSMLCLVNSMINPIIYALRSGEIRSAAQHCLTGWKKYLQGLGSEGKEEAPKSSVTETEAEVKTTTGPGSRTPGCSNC
Nature of the experiment: cell-based. Type of experiment: cell-based. The settings on record: for +/− RCB2: agonist or inverse agonist at rCB2. The protocol: as §1, §2, §3, §4

Chain of human CB1 receptor (hCB1) (P21554 whole entry): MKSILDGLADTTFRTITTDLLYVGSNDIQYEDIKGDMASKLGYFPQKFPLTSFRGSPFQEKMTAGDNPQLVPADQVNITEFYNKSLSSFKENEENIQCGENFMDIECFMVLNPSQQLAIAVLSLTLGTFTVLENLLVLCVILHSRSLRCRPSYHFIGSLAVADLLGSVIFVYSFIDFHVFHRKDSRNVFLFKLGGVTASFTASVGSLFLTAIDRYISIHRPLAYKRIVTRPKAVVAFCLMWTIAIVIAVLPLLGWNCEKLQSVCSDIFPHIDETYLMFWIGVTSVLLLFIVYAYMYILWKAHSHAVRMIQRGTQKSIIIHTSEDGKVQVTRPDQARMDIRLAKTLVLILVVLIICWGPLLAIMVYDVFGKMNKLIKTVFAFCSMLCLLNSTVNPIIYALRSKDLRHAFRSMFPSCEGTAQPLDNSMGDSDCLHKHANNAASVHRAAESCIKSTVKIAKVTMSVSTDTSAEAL

`CNC(=O)[C@H](CC(C)(C)C)NC(=O)c1nc(-c2cccc(F)c2)n2c1CN(C)CCC2` [Compound 548, (S)-N-(4,4-dimethyl-1-(methylamino)-1-oxopentan-2-yl)-3-(3-fluorophenyl)-8-methyl-6,7,8,9-tetrahydro-5H-imidazo[1,5-a][1,4]diazepine-1-carboxamide]: in experiment [1], the “+/− HCB1” value is “+”. Moreover, the “+/− RCB2” value on rat CB2 receptor (rCB2) was “+”.

For the compound `CCC/C=C/c1nc(C(=O)N[C@H](C(=O)NC)C(C)(C)C)c2n1CCCN(C)C2` [Compound 434, (S,E)-N-(3,3-dimethyl-1-(methylamino)-1-oxobutan-2-yl)-8-methyl-3-(pent-1-enyl)-6,7,8,9-tetrahydro-5H-imidazo[1,5-a][1,4]diazepine-1-carboxamide], the EC50 (in general, the concentration at which the effect is half-maximal) in experiment [1] is over 10000 nM. In addition, the “+/− RCB2” value at rat CB2 receptor (rCB2) is “+”.

The compound `CNC(=O)[C@@H](NC(=O)c1nc(C2CCC(F)(F)CC2)n2c1CN(C)CCC2)C(C)(C)C` [Compound 528, (S)-3-(4,4-difluorocyclohexyl)-N-(3,3-dimethyl-1-(methylamino)-1-oxobutan-2-yl)-8-methyl-6,7,8,9-tetrahydro-5H-imidazo[1,5-a][1,4]diazepine-1-carboxamide] yielded a concentration for a half-maximal effect (EC50) in experiment [1] of over 10000 nM. Moreover, the “+/− RCB2” value on rat CB2 receptor (rCB2) was “+”.

The compound `CNC(=O)[C@@H](NC(=O)c1nc(-c2nccs2)n2c1CN(C)CC2)C(C)(C)C` [Compound 297, (S)-N-(3,3-dimethyl-1-(methylamino)-1-oxobutan-2-yl)-7-methyl-3-(thiazol-2-yl)-5,6,7,8-tetrahydroimidazo[1,5-a]pyrazine-1-carboxamide] displayed an EC50 in experiment [1] of over 10000 nM. Besides, on rat CB2 receptor (rCB2), the “+/− RCB2” value is “+”.

Take `CNC(=O)[C@@H](NC(=O)c1nc(Cc2ccccc2)n2c1CNCC2)C(C)(C)C` [Compound 13, (S)-3-benzyl-N-(3,3-dimethyl-1-(methylamino)-1-oxobutan-2-yl)-5,6,7,8-tetrahydroimidazo[1,5-a]pyrazine-1-carboxamide]: the EC50 (in experiment [1]; on rat CB2 receptor (rCB2)) was over 10000 nM each time.

For `CNC(=O)[C@@H](NC(=O)c1nc(-c2ccc(C)cc2F)n2c1CN(C)CC2)C(C)(C)C` [Compound 249, (S)-N-(3,3-dimethyl-1-(methylamino)-1-oxobutan-2-yl)-3-(2-fluoro-4-methylphenyl)-7-methyl-5,6,7,8-tetrahydroimidazo[1,5-a]pyrazine-1-carboxamide], the EC50 in experiment [1] was over 10000 nM. Besides, at rat CB2 receptor (rCB2), the “+/− RCB2” value was “−”.

Take `CNC(=O)[C@@H](NC(=O)c1nc(CCCCO)n2c1CN(C)CCC2)C(C)(C)C` [Compound 508, (S)-N-(3,3-dimethyl-1-(methylamino)-1-oxobutan-2-yl)-3-(4-hydroxybutyl)-8-methyl-6,7,8,9-tetrahydro-5H-imidazo[1,5-a][1,4]diazepine-1-carboxamide]: the “+/− HCB1” value in experiment [1] is on record as “+”. The compound further had an EC50 at rat CB2 receptor (rCB2) of over 10000 nM.

In experiment [1], `CCN1CCn2c(-c3ccccc3)nc(C(=O)N[C@@H](C)c3ccccc3)c2C1` [Compound 147, (S)-7-ethyl-3-phenyl-N-(1-phenylethyl)-5,6,7,8-tetrahydroimidazo[1,5-a]pyrazine-1-carboxamide] showed an EC50 of over 10000 nM. For the same compound, at rat CB2 receptor (rCB2), the “+/− RCB2” value was “−”.

`CNC(=O)[C@@H](NC(=O)c1nc(-c2cc(F)c(F)c(F)c2)n2c1CN(C)CCC2)C(C)(C)C` [Compound 375, (S)-N-(3,3-dimethyl-1-(methylamino)-1-oxobutan-2-yl)-8-methyl-3-(3,4,5-trifluorophenyl)-6,7,8,9-tetrahydro-5H-imidazo[1,5-a][1,4]diazepine-1-carboxamide] registered a 50% effective concentration (EC50) in experiment [1] of over 10000 nM. On rat CB2 receptor (rCB2), the “+/− RCB2” value is given as “+”.

`CNC(=O)[C@@H](NC(=O)c1nc(-c2cccc(F)c2F)n2c1CN(C)CC2)C(C)(C)C` [Compound 261, (S)-3-(2,3-difluorophenyl)-N-(3,3-dimethyl-1-(methylamino)-1-oxobutan-2-yl)-7-methyl-5,6,7,8-tetrahydroimidazo[1,5-a]pyrazine-1-carboxamide] showed an EC50 in experiment [1] of over 10000 nM. Also, the “+/− RCB2” value on rat CB2 receptor (rCB2) was “+”.

As for `CNC(=O)[C@@H](NC(=O)c1nc(-c2ccc(F)cc2F)n2c1CN(C)CC2)C(C)(C)C` [Compound 248, (S)-3-(2,4-difluorophenyl)-N-(3,3-dimethyl-1-(methylamino)-1-oxobutan-2-yl)-7-methyl-5,6,7,8-tetrahydroimidazo[1,5-a]pyrazine-1-carboxamide], the EC50 (in experiment [1]; at rat CB2 receptor (rCB2)) was over 10000 nM in each case.

In turn, `CNC(=O)[C@@H](NC(=O)c1nc(-c2ccccc2)n2c1CNCCC2)C(C)(C)C` [Compound 314, (S)-N-(3,3-dimethyl-1-(methylamino)-1-oxobutan-2-yl)-3-phenyl-6,7,8,9-tetrahydro-5H-imidazo[1,5-a][1,4]diazepine-1-carboxamide] came in with an EC50 in experiment [1] of over 10000 nM. The “+/− RCB2” value on rat CB2 receptor (rCB2) is given as “−”.

On to `CNC(=O)[C@@H](NC(=O)c1nc(-c2cc(C(F)(F)F)ccc2F)n2c1CN(C)CC2)C(C)(C)C` [Compound 245, (S)-N-(3,3-dimethyl-1-(methylamino)-1-oxobutan-2-yl)-3-(2-fluoro-5-(trifluoromethyl)phenyl)-7-methyl-5,6,7,8-tetrahydroimidazo[1,5-a]pyrazine-1-carboxamide], for which, in experiment [1], the EC50 was over 10000 nM. Moreover, the “+/− RCB2” value at rat CB2 receptor (rCB2) is reported as “−”.

In experiment [1], `CNC(=O)[C@@H](NC(=O)c1nc(-c2cc(F)cc(F)c2)n2c1CN(C)CCC2)C(C)(C)C` [Compound 331, (S)-3-(3,5-difluorophenyl)-N-(3,3-dimethyl-1-(methylamino)-1-oxobutan-2-yl)-8-methyl-6,7,8,9-tetrahydro-5H-imidazo[1,5-a][1,4]diazepine-1-carboxamide] returned an EC50 of over 10000 nM. Moreover, the “+/− RCB2” value at rat CB2 receptor (rCB2) was “+”.

In turn, `C[C@@H](NC(=O)c1nc(-c2ccccc2)n2c1CN(C(=O)C1CCOC1)CC2)C1CCCCC1` (stereo partly drawn) [Compound 139, N-((R)-1-cyclohexylethyl)-3-phenyl-7-(tetrahydrofuran-3-carbonyl)-5,6,7,8-tetrahydroimidazo[1,5-a]pyrazine-1-carboxamide] gave a concentration for a half-maximal effect (EC50) in experiment [1] of over 10000 nM. Further, on rat CB2 receptor (rCB2), the “+/− RCB2” value is on record as “−”.

For the compound `CNC(=O)[C@@H](NC(=O)c1nc(/C=C/CN(C)C)n2c1CN(C)CCC2)C(C)(C)C` [Compound 513, (S,E)-N-(3,3-dimethyl-1-(methylamino)-1-oxobutan-2-yl)-3-(3-(dimethylamino)prop-1-enyl)-8-methyl-6,7,8,9-tetrahydro-5H-imidazo[1,5-a][1,4]diazepine-1-carboxamide], the concentration for a half-maximal effect (EC50) in experiment [1] is over 10000 nM. For the same compound, at rat CB2 receptor (rCB2), the “+/− RCB2” value is given as “−”.

For `CNC(=O)[C@@H](NC(=O)c1nc(-c2cncnc2)n2c1CN(C)CC2)C(C)(C)C` [Compound 239, (S)-N-(3,3-dimethyl-1-(methylamino)-1-oxobutan-2-yl)-7-methyl-3-(pyrimidin-5-yl)-5,6,7,8-tetrahydroimidazo[1,5-a]pyrazine-1-carboxamide], the EC50 in experiment [1] (groups >100 nM-10 μM and >10 μM, cAMP, CHO-K1 hCB1, read-out: EC50 HCB1) was over 10000 nM; on rat CB2 receptor (rCB2) (groups >100 nM-10 μM and >10 μM, cAMP, CHO-K1 rCB2, read-out: EC50 RCB2), over 10000 nM.

On to `CNC(=O)[C@@H](NC(=O)c1nc(-c2cc(C)ccc2F)n2c1CN(C)CC2)C(C)(C)C` [Compound 251, (S)-N-(3,3-dimethyl-1-(methylamino)-1-oxobutan-2-yl)-3-(2-fluoro-5-methylphenyl)-7-methyl-5,6,7,8-tetrahydroimidazo[1,5-a]pyrazine-1-carboxamide], for which, in experiment [1], the EC50 is over 10000 nM. Besides, on rat CB2 receptor (rCB2), the “+/− RCB2” value is given as “−”.
